Laboratory results as given in patent US11351236B2, “BCMA chimeric antigen receptors” (2seventy bio, Inc., priority 2014, dated 2022).

Test system: human multiple myeloma (RPMI-8226) tumors
Assay: Sub-cutaneous human multiple myeloma (RPMI-8226) tumor model in NSG mice
Format: in vivo, mouse
Settings: ~100 mm^3 RPMI-8226 tumors, 10^7 CAR T cells or Bortezomib, two independent experiments
Description: Hyperactivation and increased apoptosis could negatively impact CAR T cell persistence in patients and ultimately clinical efficacy. The anti-tumor function of anti-BCMA02 CAR T cells and anti-BCMA10 CAR T cells was examined in a mouse tumor model. NOD scid gamma (NSG) mice with ˜100 mm^3 experimental sub-cutaneous human multiple myeloma (RPMI-8226) tumors were treated with 10^7 anti-BCMA02 CAR T cells, 10^7 anti-BCMA10 CAR T cells, or Bortezomib (velcade). RPMI-8226 growth was monitored with calipers.

Which “tumor growth (calipers)” value does the source give for `CC(C)C[C@H](NC(=O)[C@H](Cc1ccccc1)NC(=O)c1cnccn1)B(O)O` [Bortezomib] here?
The value was “controlled tumor growth”.
